Experimental data: US20110319392A1, “Thiazole Sulfonamide And Oxazole Sulfonamide Kinase Inhibitors” (priority 2009, published 2011)
Where a name gives a salt, the structure may show the parent alone.

Target: T1, EGFR (Homo sapiens, UniProt P00533)
T1 construct: made in house; host or cells: baculovirus expression system
Assay: EGFR substrate phosphorylation assay (HTRF)
Format: biochemical
In short: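 Baculovirus-expressed EGFR (0.8 nM) or ErbB2 (10 nM) in enzyme mix, preincubated 1 h at 20 °C with compound (0.00027–47.6 μM final), then 90 min at 20 °C with substrate mix of 20 μM ATP, 0.8 uM biotinylated Peptide C, MnCl2, MOPS pH 7.5. Phosphotyrosine by HTRF; pIC50 reported.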

T1 sequence (P00533 25-1210): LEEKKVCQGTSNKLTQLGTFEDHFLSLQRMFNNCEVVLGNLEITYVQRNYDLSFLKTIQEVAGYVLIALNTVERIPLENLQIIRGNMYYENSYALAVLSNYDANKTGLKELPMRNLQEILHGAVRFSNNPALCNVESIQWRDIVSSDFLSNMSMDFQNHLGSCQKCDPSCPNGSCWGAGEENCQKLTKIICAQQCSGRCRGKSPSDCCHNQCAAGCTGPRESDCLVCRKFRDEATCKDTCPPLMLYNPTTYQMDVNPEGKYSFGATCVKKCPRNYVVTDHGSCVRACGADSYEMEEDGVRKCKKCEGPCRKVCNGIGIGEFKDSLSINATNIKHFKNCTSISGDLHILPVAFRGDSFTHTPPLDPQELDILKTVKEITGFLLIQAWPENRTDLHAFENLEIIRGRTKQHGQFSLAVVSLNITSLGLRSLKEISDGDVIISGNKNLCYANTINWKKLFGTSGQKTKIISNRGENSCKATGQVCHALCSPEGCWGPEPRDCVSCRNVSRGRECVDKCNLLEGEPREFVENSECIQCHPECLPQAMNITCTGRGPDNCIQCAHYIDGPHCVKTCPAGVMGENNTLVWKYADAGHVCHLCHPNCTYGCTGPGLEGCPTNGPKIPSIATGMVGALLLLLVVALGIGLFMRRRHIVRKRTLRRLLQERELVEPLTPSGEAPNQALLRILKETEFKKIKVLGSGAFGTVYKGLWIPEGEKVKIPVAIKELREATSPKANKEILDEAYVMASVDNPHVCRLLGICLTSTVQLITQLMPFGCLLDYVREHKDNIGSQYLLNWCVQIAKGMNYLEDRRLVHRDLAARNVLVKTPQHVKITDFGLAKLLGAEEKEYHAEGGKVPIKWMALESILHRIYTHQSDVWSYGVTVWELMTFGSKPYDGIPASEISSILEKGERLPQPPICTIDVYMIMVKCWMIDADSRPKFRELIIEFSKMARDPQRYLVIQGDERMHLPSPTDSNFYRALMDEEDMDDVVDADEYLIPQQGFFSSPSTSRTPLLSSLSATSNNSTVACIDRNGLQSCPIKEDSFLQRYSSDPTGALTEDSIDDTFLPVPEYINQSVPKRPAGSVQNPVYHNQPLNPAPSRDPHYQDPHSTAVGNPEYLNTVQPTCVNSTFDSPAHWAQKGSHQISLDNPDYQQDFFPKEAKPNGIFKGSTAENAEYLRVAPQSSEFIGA

| Compound | IC50 | EGFR Activity |
| --- | --- | --- |
| CC(C)c1nc(-c2ccc(F)c(NS(=O)(=O)c3c(F)cccc3F)c2)c(-c2ccnc(Nc3ccc(N4CCN(CCF)CC4)c(F)c3)n2)s1 [Example 25] | 0.1 to 1 µM | – |
| O=S(=O)(Nc1cc(-c2nc(N3CCCC3)sc2-c2ccnc(Nc3ccc(N4CCOCC4)nc3)n2)ccc1F)c1c(F)cccc1F [Example 26, 2,6-Difluoro-N-{2-fluoro-5-[5-(2-{(6-(4-morpholinyl)-3-pyridinyl]amino}-4-pyrimidinyl)-2-(1-pyrrolidinyl)-1,3-thiazol-4-yl]phenyl}benzenesulfonamide] | 0.1 to 1 µM | – |
| CN(C)c1nc(-c2ccc(F)c(NS(=O)(=O)c3c(F)cccc3F)c2)c(-c2ccnc(Nc3ccc(N4CCOCC4)nc3)n2)s1 [Example 27, N-{5-[2-(Dimethylamino)-5-(2-{[6-(4-morpholinyl)-3-pyridinyl]amino}-4-pyrimidinyl)-1,3-thiazol-4-yl]-2-fluorophenyl}-2,6-difluorobenzenesulfonamide] | 0.1 to 1 µM | – |
| CC(C)(C)c1nc(-c2ccc(F)c(NS(=O)(=O)c3c(F)cccc3F)c2)c(-c2ccnc(Nc3ccc(N4CCOCC4)nc3)n2)s1 [Example 28, N-{5-[2-(1,1-Dimethylethyl)-5-(2-{[[6-(4-morpholinyl)-3-pyridinyl]amino}-4-pyrimidinyl)-1,3-thiazol-4-yl]-2-fluorophenyl]-2,6-difluorobenzenesulfonamide hydrochloride] | > 1 µM | – |
| CC(C)c1nc(-c2cccc(NS(=O)(=O)c3c(F)cccc3F)c2F)c(-c2ccnc(Nc3ccc(N4CCN(CCF)CC4)c(F)c3)n2)s1 [Example 29, 2,6-Difluoro-N-{2-fluoro-3-[5-[2-({3-fluoro-4-[4-(2-fluoroethyl)-1-piperazinyl]phenyl}amino)-4-pyrimidinyl]-2-(1-methylethyl)-1,3-thiazol-4-yl]phenyl}benzenesulfonamide] | > 1 µM | – |
| CC(C)c1nc(-c2cccc(NS(=O)(=O)c3c(F)cccc3F)c2F)c(-c2ccnc(Nc3cnc(N4CCOCC4)c(F)c3)n2)s1 [Example 30, 2,6-Difluoro-N-{2-fluoro-3-[5-(2-{[5-fluoro-6-(4-morpholinyl)-3-pyridinyl]amino}-4-pyrimidinyl)-2-(1-methylethyl)-1,3-thiazol-4-yl]phenyl}benzenesulfonamide] | > 1 µM | – |
| CC(C)c1nc(-c2cc(F)c(F)c(NS(=O)(=O)c3cccc(F)c3)c2)c(-c2ccnc(Nc3cnc(N4CCOCC4)c(F)c3)n2)s1 [Example 31, N-{2,3-Difluoro-5-[5-(2-{[5-fluoro-6-(4-morpholinyl)-3-pyridinyl]amino}-4-pyrimidinyl)-2-(1-methylethyl)-1,3-thiazol-4-yl]phenyl}-3-fluorobenzenesulfonamide] | > 1 µM | – |
| CC(C)c1nc(-c2ccnc(NS(=O)(=O)c3c(F)cccc3F)c2)c(-c2ccnc(Nc3ccc(N4CCOCC4)nc3)n2)s1 [Example 32, 2,6-Difluoro-N-{4-[2-(1-methylethyl)-5-(2-{[6-(4-morpholinyl}-3-pyridinyl]amino}-4-pyrimidinyl)-1,3-thiazol-4-yl]-2-pyridinyl}benzenesulfonamide] | > 1 µM | – |
| CC(C)c1nc(-c2ccnc(NS(=O)(=O)c3c(F)cccc3F)c2)c(-c2ccnc(Nc3cnc(N4CCOCC4)c(F)c3)n2)s1 [Example 33] | > 1 µM | – |
| CCc1nc(-c2cccc(CNS(=O)(=O)c3ccccc3)c2)c(-c2ccnc(Nc3ccc(N4CCOCC4)c(F)c3)n2)s1 [Example 34] | > 1 µM | – |
| CC(=O)N1CCN(c2ccc(Nc3nccc(-c4sc(C(C)C)nc4-c4cccc(NS(=O)(=O)c5cn(C)cn5)c4)n3)cn2)CC1 [Example 36] | < 0.1 µM | – |
| CC(C)c1nc(-c2cccc(NS(=O)(=O)C3CCCCC3)c2)c(-c2ccnc(Nc3ccc(N4CCOCC4)c(F)c3)n2)s1 [Example 38] | > 1 µM | – |
| CC(=O)N1CCN(c2ccc(Nc3nccc(-c4sc(C(C)C)nc4-c4cccc(NS(=O)(=O)C5CCCCC5)c4)n3)cn2)CC1 [Example 39] | 0.1 to 1 µM | – |
| Cc1nc(Cl)sc1S(=O)(=O)Nc1cccc(-c2nc(C(C)C)sc2-c2ccnc(Nc3ccc(N4CCOCC4)nc3)n2)c1 [Example 42] | > 1 µM | – |
| CC(C)c1nc(-c2cccc(NS(=O)(=O)c3c(F)cccc3F)n2)c(-c2ccnc(Nc3ccc(N4CCOCC4)nc3)n2)s1 [Example 44] | > 1 µM | – |
| CC(C)c1nc(-c2cncc(NS(=O)(=O)c3c(F)cccc3F)c2)c(-c2ccnc(Nc3ccc(N4CCOCC4)nc3)n2)s1 [Example 47] | > 1 µM | – |
| COc1ccc(S(=O)(=O)Nc2cccc(-c3nc(C(C)C)sc3-c3ccnc(Nc4ccc(N5CCOCC5)nc4)n3)c2)cn1 [Example 49] | > 1 µM | – |

| Compound | IC50 | EGFR Activity |
| --- | --- | --- |
| CC(C)c1nc(-c2cccc(NS(=O)(=O)c3cccs3)c2)c(-c2ccnc(Nc3ccc(N4CCOCC4)nc3)n2)s1 [Example 51] | > 1 µM | – |
| CC(C)c1nc(-c2cccc(NS(=O)(=O)c3cccnc3)c2)c(-c2ccnc(Nc3ccc(N4CCOCC4)nc3)n2)s1 [Example 52] | 0.1 to 1 µM | – |
| CC(C)c1nc(-c2cccc(NS(=O)(=O)c3ccco3)c2)c(-c2ccnc(Nc3ccc(N4CCOCC4)nc3)n2)s1 [Example 53] | > 1 µM | – |
| CC(=O)N1CCN(c2ccc(Nc3nccc(-c4oc(C(C)C)nc4-c4cccc(NS(=O)(=O)c5c(F)cccc5F)c4)n3)cn2)CC1 [Example 56] | > 1 µM | – |
| CC(C)c1nc(-c2cccc(NS(=O)(=O)c3c(F)cccc3F)c2)c(-c2ccnc(Nc3ccc(N4CCOCC4)c(F)c3)n2)o1 [Example 57] | 0.1 to 1 µM | – |
| Nc1nc(-c2cccc(NS(=O)(=O)c3c(F)cccc3F)c2)c(-c2ccnc(Nc3ccc(N4CCOCC4)nc3)n2)s1 [Example 62] | 0.1 to 1 µM | – |
| CCNc1nc(-c2cccc(NS(=O)(=O)c3ccccc3)c2)c(-c2ccnc(Nc3ccc(OCCN4CCCC4)c(F)c3)n2)s1 [Example 65] | – | +++ (at least one pIC50 measurement of greater than 7 against EGFR) |
| CC(=O)N1CCN(c2ccc(Nc3nccc(-c4sc(C(C)C)nc4-c4cccc(NS(=O)(=O)c5cccc(C(F)(F)F)c5)c4)n3)cn2)CC1 [Example 70] | > 1 µM | – |
| CC(C)c1nc(-c2ccc(F)c(NS(=O)(=O)c3c(F)cccc3F)c2)c(-c2ccnc(Nc3ccc(N4CCN5CCOC[C@H]5C4)nc3)n2)s1 [Example 97] | 0.1 to 1 µM | – |
| CCOc1ccc(Nc2nccc(-c3sc(C(C)C)nc3-c3ccc(F)c(NS(=O)(=O)c4c(F)cccc4F)c3)n2)cc1N1CCN(CCF)CC1 [Example 98] | < 0.1 µM | – |
| CC(C)(C)c1nc(-c2ccc(F)c(NS(=O)(=O)c3c(F)cccc3F)c2)c(-c2ccnc(Nc3ccc(N4CCN(CCF)CC4)c(F)c3)n2)s1 [Example 99] | > 1 µM | – |
| CC(C)c1nc(-c2ccnc(NS(=O)(=O)c3c(F)cccc3F)c2)c(-c2ccnc(Nc3ccc(N4CCN(CCF)CC4)c(F)c3)n2)s1 [Example 100] | > 1 µM | – |
| CC(C)c1nc(-c2cc(F)c(F)c(NS(=O)(=O)c3cccc(F)c3)c2)c(-c2ccnc(Nc3ccc(N4CCN(CCF)CC4)c(F)c3)n2)s1 [Example 101] | > 1 µM | – |
| CC(C)c1nc(-c2ccc(F)c(NS(=O)(=O)c3c(F)cccc3F)c2)c(-c2ccnc(Nc3ccncc3)n2)s1 [Example 102] | > 1 µM | – |
| CN1CCC(c2nc(-c3ccc(F)c(NS(=O)(=O)c4c(F)cccc4F)c3)c(-c3ccnc(Nc4ccc(N5CCOCC5)nc4)n3)s2)CC1 [Example 106] | 0.1 to 1 µM | – |
| CC(C)c1nc(-c2ccc(F)c(NS(=O)(=O)c3ccccc3C#N)c2)c(-c2ccnc(Nc3ccc(N4CCOCC4)nc3)n2)s1 [Example 107] | 0.1 to 1 µM | – |
